Test system in one data set: not listed separately
As to the kind of experiment: Acute Toxicity Study (MTD). The class given is in vivo, rats and mice. Particulars: rats or mice, fed once, oral dose 10000 mg/kg, observed for a week. The source says: Acute Toxicity Study (MTD):
Materials and Methods for MTD Study are as follows:
Animals were fed freely for adaptation more than 1 week. Healthy rats, body weight between 170-190 g, were divided randomly into 3 groups, 5 male and 5 female in each group. Healthy mice, body weight between 18-22 g, were divided randomly into 22 groups, 5 male and 5 female in each group.
In rats, the compound weighing 21.00 g, serial number 1-3 respectively, adding 0.7% sodium carboxymethyl cellulose solution 30.00 g, high-speed homogenizer machine 15000 RPM, 10 min mixing, the rats were fed once, oral dose 10000 mg/kg. In mice, the compound weighing 2.00 g, serial number 4-25 respectively, adding 0.7% sodium carboxymethyl cellulose solution 8.00 g, high-speed homogenizer machine 10000 RPM, 10 min mixing, the mice were fed once, oral dose 10000 mg/kg.
Animals were observed every hour after administration in the first day, and behavior observation daily continuous for a week. Dead animals were necropsied, gross pathology of the organs were observed and recorded.
Toxicity was evaluated by animal mortality, signs of clinical behavior and others.
As for `COC(=O)N[C@@H](C(=O)N1CC=CC1c1nc(-c2ccc(-c3ccc(-c4c[nH]c(C5CCCN5C(=O)[C@H](NC(=O)OC)c5ccccc5)n4)cc3)cc2)c[nH]1)c1ccccc1` (stereo partly drawn) [Compound 6bz], the “MTD results: test-article related death and adverse events” value (“MTD results” for short) was “no any test-article related death and no any adverse events observed”.

On to `COC(=O)N[C@H](C(=O)N1CCCC1c1nc(-c2ccc(-c3ccc(-c4c[nH]c(C5C=CCN5C(=O)[C@H](NC(=O)OC)c5ccccc5)n4)cc3)cc2)c[nH]1)C(C)C` (stereo partly drawn) [Compound 6bx], for which the “MTD results” value was “no any test-article related death and no any adverse events observed”. With `COC(=O)N[C@H](C(=O)N1CC=C[C@H]1c1ncc(-c2ccc(-c3cc4sc(-c5cnc([C@@H]6CCCN6C(=O)[C@@H](NC(=O)OC)C(C)C)[nH]5)cc4s3)cc2)[nH]1)C(C)C` [Compound 6fg], the “MTD results” value is “no any test-article related death and no any adverse events observed”. Still for that read-out and setting: for `COC(=O)N[C@H](C(=O)N1CC=CC1c1nc(-c2ccc(-c3ccc(-c4c[nH]c(C5CCCN5C(=O)[C@H](NC(=O)OC)c5ccccc5)n4)cc3)cc2)c[nH]1)C(C)C` (stereo partly drawn) [Compound 6by] the value was “no any test-article related death and no any adverse events observed”; for `COC(=O)N[C@H](C(=O)N1CC=C[C@H]1c1ncc(-c2cc3sc(-c4ccc(-c5cnc([C@@H]6CCCN6C(=O)[C@H](NC(=O)OC)c6ccccc6)[nH]5)cc4)cc3s2)[nH]1)C(C)C` [Compound 6fp], “no any test-article related death and no any adverse events observed”. The same measure, in the same setting: with `COC(=O)N[C@H](C(=O)N1CCCC1c1nc(-c2cc3sc(-c4ccc(-c5c[nH]c(C6C=CCN6C(=O)[C@H](NC(=O)OC)c6ccccc6)n5)cc4)cc3s2)c[nH]1)C(C)C` (stereo partly drawn) [Compound 6fc] the entry was “no any test-article related death and no any adverse events observed”.

For another data set, the system named is GT-1a of NS5A Replicon. As to the kind of experiment: HCV double reporter gene (Renilla luciferase) replicon assay, GT-1a. The class given is cell-based, Hepatitis C virus (HCV). Particulars: GT-1a replicon; class symbols; read-out: EC50 For GT-1a of NS5A Replicon. The method in brief:
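Replication measured in a double-reporter HCV replicon cell system by Renilla luciferase signal. EC50 from 8-point 2-fold dilutions, triplicate wells, three repeats, with 1 or 2 control drugs.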
(In a reporter assay the amount or activity of a reporter protein is the signal.)
One may read the EC50 as the concentration that produces a half-maximal response. On to `COC(=O)NC(C(=O)N1CC=C[C@H]1c1ncc(-c2ccc(-c3ccc(-c4cnc([C@@H]5CCCN5C(=O)[C@@H](NC(=O)OC)C(C)C)[nH]4)cc3)cc2)[nH]1)C1CCCCC1` (stereo partly drawn) [Compound 6di], for which the half-maximal effective concentration (EC50) lay in the range of 0.001 to 0.999 nM. Same read-out and setting: with `COC(=O)NC(C(=O)N1CC=C[C@H]1c1ncc(-c2ccc(-c3ccc(-c4cnc([C@@H]5CCCN5C(=O)[C@@H](NC(=O)OC)C(C)C)[nH]4)cc3)cc2)[nH]1)C1CCCCC1` (stereo partly drawn) [Compound 6dj] the figure was 1 to 49.9 nM.

Staying with this data set, now noted: Hepatitis C virus, GT1A, GT-1a replicon; class symbols; read-out: EC50 For GT-1a of NS5A Replicon.
With `COC(=O)N[C@@H](C(=O)N1CC=CC1c1nc(-c2ccc(-c3ccc(-c4c[nH]c(C5CCCN5C(=O)[C@H](NC(=O)OC)c5ccccc5)n4)cc3)cc2)c[nH]1)c1ccccc1` (stereo partly drawn) [Compound 6bz], the 50% effective concentration (EC50) was in the range of 0.001 to 0.999 nM.

In the case of `COC(=O)N[C@H](C(=O)N1CCCC1c1nc(-c2ccc(-c3ccc(-c4c[nH]c(C5C=CCN5C(=O)[C@H](NC(=O)OC)c5ccccc5)n4)cc3)cc2)c[nH]1)C(C)C` (stereo partly drawn) [Compound 6bx], the EC50 lay within 0.001 to 0.999 nM. On the same count and under the same terms, with `COC(=O)N[C@H](C(=O)N1CC=C[C@H]1c1ncc(-c2ccc(-c3cc4sc(-c5cnc([C@@H]6CCCN6C(=O)[C@@H](NC(=O)OC)C(C)C)[nH]5)cc4s3)cc2)[nH]1)C(C)C` [Compound 6fg] the figure was 0.001 to 0.999 nM; with `COC(=O)N[C@H](C(=O)N1CC=CC1c1nc(-c2ccc(-c3ccc(-c4c[nH]c(C5CCCN5C(=O)[C@H](NC(=O)OC)c5ccccc5)n4)cc3)cc2)c[nH]1)C(C)C` (stereo partly drawn) [Compound 6by], 0.001 to 0.999 nM; with `COC(=O)N[C@H](C(=O)N1CC=C[C@H]1c1ncc(-c2cc3sc(-c4ccc(-c5cnc([C@@H]6CCCN6C(=O)[C@H](NC(=O)OC)c6ccccc6)[nH]5)cc4)cc3s2)[nH]1)C(C)C` [Compound 6fp], 0.001 to 0.999 nM. The same measure, in the same setting: for `COC(=O)N[C@H](C(=O)N1CC=CC1c1nc(-c2ccc(-c3ccc(-c4c[nH]c([C@@H]5CCCCN5C(=O)[C@@H](NC(=O)OC)C(C)C)n4)cc3)cc2)c[nH]1)C(C)C` (stereo partly drawn) [Compound 6bk] the value was 0.001 to 0.999 nM.

As for `CC(C)[C@H](NC(=O)OC(C)(C)C)C(=O)N1CCC[C@H]1c1nc(-c2ccc(-c3ccc(-c4cnc([C@@H]5C[C@@H](OC(=O)N6Cc7ccc8c(c7C6)OCO8)CN5C(=O)[C@@H](NC(=O)OC(C)(C)C)C(C)C)[nH]4)cc3)cc2)c[nH]1` [Compound 6b], the EC50 is above 50 nM. Still for that read-out and setting: for `COC(=O)N[C@H](C(=O)N1C[C@H](OC(=O)N2Cc3ccc4c(c3C2)OCO4)CC1c1ncc(-c2ccc(-c3ccc(-c4c[nH]c([C@@H]5CCCN5C(=O)[C@@H](NC(=O)OC)C(C)C)n4)cc3)cc2)[nH]1)C(C)C` (stereo partly drawn) [Compound 6a] the value was 0.001 to 0.999 nM. On the same count and under the same terms, with `CC(C)C(NC(=O)N(C)C)C(=O)N1CC=C[C@H]1c1nc(-c2ccc(-c3ccc(-c4c[nH]c(C5CCCN5C(=O)[C@@H](NC(=O)N(C)C)C(C)C)n4)cc3)cc2)c[nH]1` (stereo partly drawn) [Compound 6cg] the figure was 0.001 to 0.999 nM; with `COC(=O)N[C@@H](C(=O)N1CC=CC1c1ncc(-c2ccc(-c3csc4c(-c5c[nH]c([C@@H]6CCCN6C(=O)[C@H](NC(=O)OC)c6ccccc6)n5)csc34)cc2)[nH]1)c1ccccc1` (stereo partly drawn) [Compound 6fs], 0.001 to 0.999 nM. The same measure, in the same setting: with `COC(=O)N[C@H](C(=O)N1CC=C[C@H]1c1nc(-c2ccc(-c3ccc(-c4cnc([C@@H]5CC6(CN5C(=O)[C@H](NC(=O)OC)c5ccccc5)OCCO6)[nH]4)cc3)cc2)c[nH]1)C(C)C` [Compound 6du] the figure was 0.001 to 0.999 nM; with `COC(=O)N[C@H](C(=O)N1CC=CC1c1nc(-c2ccc(-c3ccc(-c4c[nH]c([C@@H]5CCCN5C(=O)C5(NC(=O)OC)CC5)n4)cc3)cc2)c[nH]1)C(C)C` (stereo partly drawn) [Compound 6bh], 0.001 to 0.999 nM; with `CC(C)[C@H](NC(=O)OC1CCCC1)C(=O)N1CCC[C@H]1c1nc(-c2ccc(-c3ccc(-c4cnc([C@@H]5C[C@@H](OC(=O)N6Cc7cccc(F)c7C6)CN5C(=O)[C@@H](NC(=O)OC5CCCC5)C(C)C)[nH]4)cc3)cc2)c[nH]1` [Compound 6v], above 50 nM. In the case of `COC(=O)N[C@H](C(=O)N1CCCC1c1nc2cc(-c3ccc4c(c3)C(F)(F)c3cc(-c5c[nH]c([C@@H]6CN(C(=O)N7Cc8cc9c(cc8C7)OCO9)CN6C(=O)[C@@H](NC(=O)OC)C(C)C)n5)ccc3-4)ccc2[nH]1)C(C)C` (stereo partly drawn) [Compound 6bs], the EC50 was above 50 nM. On the same count and under the same terms, for `COC(=O)N[C@H](C(=O)N1CCCC1c1ncc(-c2ccc3c(c2)cc2n3C(c3ccccc3)Oc3cc(-c4cnc([C@@H]5C=CCN5C(=O)[C@@H](NC(=O)OC)C(C)C)[nH]4)ccc3-2)[nH]1)C(C)C` (stereo partly drawn) [Compound 6cd] the value was above 50 nM; for `COC(=O)N[C@H](C(=O)N1CCC[C@H]1c1nc(-c2ccc(-c3ccc(-c4cnc([C@@H]5C[C@@H](OC(=O)N6Cc7ccc8c(c7C6)OCO8)CN5C(=O)[C@@H](NC(=O)OC(C)(C)C)C(C)C)[nH]4)cc3)cc2)c[nH]1)C(C)C` [Compound 6d], 1 to 49.9 nM; for `COC(=O)N[C@H](C(=O)N1CCCC1c1nc(-c2ccc(-c3ccc(-c4c[nH]c([C@@H]5CCCN5C(=O)C5(NC(=O)OC)CCCCC5)n4)cc3)cc2)c[nH]1)C(C)C` (stereo partly drawn) [Compound 6aa], 0.001 to 0.999 nM. On the same count and under the same terms, for `COC(=O)N[C@H](C(=O)N1CCC[C@H]1c1ncc(-c2cc3sc(-c4ccc(-c5cnc([C@@H]6C=CCN6C(=O)[C@H](NC(=O)OC)c6ccccc6)[nH]5)cc4)cc3s2)[nH]1)C(C)C` [Compound 6fj] the value was 0.001 to 0.999 nM.

As for `COC(=O)N[C@H](C(=O)N1CC=CC1c1ncc(-c2ccc(-c3csc4c(-c5c[nH]c([C@@H]6CCCN6C(=O)[C@@H](NC(=O)OC)C(C)C)n5)csc34)cc2)[nH]1)C(C)C` (stereo partly drawn) [Compound 6fq], the EC50 lay in the range of 0.001 to 0.999 nM. On to `COC(=O)N[C@H](C(=O)N1CN(C(=O)N2Cc3cccc(Cl)c3C2)CC1c1nc(-c2ccc(-c3ccc(-c4c[nH]c([C@@H]5CCCN5C(=O)[C@@H](NC(=O)OC)C(C)C)n4)cc3)cc2)c[nH]1)C(C)C` (stereo partly drawn) [Compound 6at], for which the concentration for a half-maximal effect (EC50) lay in the range of 0.001 to 0.999 nM. On the same count and under the same terms, with `COC(=O)N[C@H](C(=O)N1CN(C(=O)N2Cc3ccc(F)cc3C2)CC1c1nc(-c2ccc(-c3ccc(-c4c[nH]c([C@@H]5CCCN5C(=O)[C@@H](NC(=O)OC)C(C)C)n4)cc3)cc2)c[nH]1)C(C)C` (stereo partly drawn) [Compound 6as] the figure was 0.001 to 0.999 nM. For the molecule `COC(=O)N[C@H](C(=O)N1CC=CC1c1nc(-c2ccc(-c3ccc(-c4c[nH]c([C@@H]5CCCN5C(=O)C5(NC(=O)OC)CCCC5)n4)cc3)cc2)c[nH]1)C(C)C` (stereo partly drawn) [Compound 6bi], the EC50 is 0.001 to 0.999 nM. As for `COC(=O)N[C@H](C(=O)N1CCC[C@H]1c1nc(-c2ccc(-c3ccc(-c4cnc([C@@H]5C[C@@H](OC(=O)N6Cc7cc8c(cc7C6)OCO8)CN5C(=O)[C@@H](NC(=O)OC(C)(C)C)C(C)C)[nH]4)cc3)cc2)c[nH]1)C(C)C` [Compound 6m], the 50% effective concentration (EC50) is 1 to 49.9 nM. The same measure, in the same setting: for `COC(=O)N[C@H](C(=O)N1CC(OC(=O)N2Cc3cc4c(cc3C2)OCO4)CC1c1nc(-c2ccc3c(c2)oc2cc(-c4c[nH]c([C@@H]5CCCN5C(=O)[C@@H](NC(=O)OC)C(C)C)n4)ccc23)c[nH]1)C(C)C` (stereo partly drawn) [Compound 6bn] the value was 0.001 to 0.999 nM.

The same data set, now with this note: Hepatitis C virus, GT1A, read-out: EC50 For GT-1a of NS5A Replicon.
In the case of `COC(=O)N[C@H](C(=O)N1C[C@H](OC(=O)N2Cc3cc4c(cc3C2)OCO4)C[C@H]1c1nc(-c2ccc(-c3ccc(-c4cnc([C@@H]5C[C@@H](OC(=O)N6Cc7cc8c(cc7C6)OCO8)CN5C(=O)[C@@H](NC(=O)OC)C(C)C)[nH]4)cc3)cc2)c[nH]1)C(C)C` [Compound 6n], the EC50 is above 50 nM.

The values are drawn from patent publication US9820972B2, “Antiviral compounds highly effective as HCV-NS5A inhibitor” (priority 2013, dated 2017).
